This is an account of results in PubChem BioAssay AID248 (DTP/NCI, 2004).

Values joined by “and” are separate entries in the source; they are usually repeats but may differ in a detail not shown here. Identical values can stand only once. Toxic doses and inconclusive results are not listed.

In the assay the test system is L1210 leukemia ip in BDF1 mice, survival T/C. The assay can be described thus: NCI In Vivo Anticancer Drug Screen. Data for tumor model L1210 Leukemia (intraperitoneal) in B6D2F1 (BDF1) mice. As to conditions: endpoint: mean survival time, higher = longer survival. The gist of the method:
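Antitumor effect is assessed in tumor-bearing animals. Survival in the compound arm is compared with a vehicle-dosed control arm and expressed as their quotient.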

Setting [1] is: dose: 100.0 mg/kg/injection, schedule: Q01DX009 (ip), vehicle: Klucel (hydroxypropylcellulose) (HPC).
[2] abbreviates: dose: 100.0 mg/kg/injection, schedule: Q04DX002 (ip), vehicle: Klucel (hydroxypropylcellulose) (HPC).
Setting [3] is: dose: 200.0 mg/kg/injection, schedule: Q01DX009 (ip), vehicle: Klucel (hydroxypropylcellulose) (HPC).
[4] abbreviates: dose: 200.0 mg/kg/injection, schedule: Q04DX002 (ip), vehicle: Klucel (hydroxypropylcellulose) (HPC).
Setting [5] is: dose: 400.0 mg/kg/injection, schedule: Q04DX002 (ip), vehicle: Klucel (hydroxypropylcellulose) (HPC).
[6] abbreviates: dose: 100.0 mg/kg/injection, schedule: Q01DX001 (ip), vehicle: saline.
Where [7] appears, read: dose: 100.0 mg/kg/injection, schedule: Q04DX003 (ip), vehicle: Klucel (hydroxypropylcellulose) (HPC).
[8] abbreviates: dose: 200.0 mg/kg/injection, schedule: Q01DX001 (ip), vehicle: saline.
[9] abbreviates: dose: 200.0 mg/kg/injection, schedule: Q04DX003 (ip), vehicle: Klucel (hydroxypropylcellulose) (HPC).
The mark [10] stands for this setting: dose: 400.0 mg/kg/injection, schedule: Q01DX001 (ip), vehicle: saline.
Setting [11] is: dose: 400.0 mg/kg/injection, schedule: Q01DX009 (ip), vehicle: Klucel (hydroxypropylcellulose) (HPC).
[12] abbreviates: dose: 400.0 mg/kg/injection, schedule: Q04DX003 (ip), vehicle: Klucel (hydroxypropylcellulose) (HPC).
Where [13] appears, read: dose: 100.0 mg/kg/injection, schedule: Q01DX009 (ip), vehicle: saline.
[14] abbreviates: dose: 200.0 mg/kg/injection, schedule: Q01DX009 (ip), vehicle: saline.
[15] abbreviates: dose: 400.0 mg/kg/injection, schedule: Q01DX009 (ip), vehicle: saline.

As for `COC(=O)c1ccc([N+](=O)[O-])o1`, the T/C was 104 % of control (dose: 50.0 mg/kg/injection, schedule: Q04DX002 (ip), vehicle: Klucel (hydroxypropylcellulose) (HPC)); 93 % of control under setting [1]; 90 % of control under setting [2]; 111 % of control under setting [3]; 101 % of control under setting [4]; 87 % of control under setting [5].

`Nc1nc(N)c2cc(N3CCCC3c3ccc(Cl)c(Cl)c3)ccc2n1` (configuration not stated): the T/C by setting is: (dose: 1.56 mg/kg/injection, schedule: Q01DX009 (ip), vehicle: water) 103 % of control; (dose: 3.12 mg/kg/injection, schedule: Q01DX009 (ip), vehicle: water) 110 % of control; (dose: 6.25 mg/kg/injection, schedule: Q01DX009 (ip), vehicle: water) 98 % of control.

As for `CCN(CC)C(C)COC(=O)c1ccc(N)cc1` (configuration not stated), the T/C reads like this: (dose: 12.5 mg/kg/injection, schedule: Q01DX009 (ip), vehicle: saline) 101 % of control; (dose: 25.0 mg/kg/injection, schedule: Q01DX009 (ip), vehicle: saline) 101 % of control; (dose: 50.0 mg/kg/injection, schedule: Q01DX009 (ip), vehicle: saline) 95 % of control.

As to `CCCCC=C(C1CCCCC1)C1CCCCC1`, the T/C was 104 % of control (dose: 75.0 mg/kg/injection, schedule: Q01DX001 (ip), vehicle: saline); 92 % of control (dose: 75.0 mg/kg/injection, schedule: Q04DX003 (ip), vehicle: saline); 93 % of control (dose: 150.0 mg/kg/injection, schedule: Q01DX001 (ip), vehicle: saline); 101 % of control (dose: 150.0 mg/kg/injection, schedule: Q04DX003 (ip), vehicle: saline); 91 % of control (dose: 300.0 mg/kg/injection, schedule: Q01DX001 (ip), vehicle: saline); 100 % of control (dose: 300.0 mg/kg/injection, schedule: Q04DX003 (ip), vehicle: saline).

With `c1ccc2sc(SSc3nc4ccccc4s3)nc2c1`, the T/C was 96 % of control (dose: 50.0 mg/kg/injection, schedule: Q01DX001 (ip), vehicle: saline); 98 % of control under setting [6]; 86 % of control under setting [1]; 97 % of control under setting [7]; 92 % of control under setting [8]; 96 % of control under setting [3]. Besides, the T/C under setting [9] was 94 % of control, the T/C under setting [10] is 104 % of control, the T/C under setting [11] is 90 % of control and the T/C under setting [12] is 90 % of control.

For `O=c1ccnc(SCc2ccccc2)[nH]1`, the T/C (dose: 100.0 mg/kg/injection, schedule: Q01DX Z (ip), vehicle: methylcellulose (MC)) was 95 % of control and the T/C (dose: 200.0 mg/kg/injection, schedule: Q01DX Z (ip), vehicle: methylcellulose (MC)) is 97 % of control.

On to `CC1C[N+](C)(C)NC1=O` (configuration not stated), for which the T/C reads like this: under setting [6], 98 % of control; under setting [13], 103 % of control; under setting [8], 103 % of control; under setting [14], 107 % of control; under setting [10], 92 % of control; under setting [15], 91 % of control.

As to `c1cc[c]([Sn]([c]2ccccc2)([c]2ccccc2)[n]2cncn2)cc1`, the T/C (dose: 6.25 mg/kg/injection, schedule: Q04DX002 (ip), vehicle: saline with Tween-80) is 101 % of control; the T/C (dose: 12.5 mg/kg/injection, schedule: Q04DX002 (ip), vehicle: saline with Tween-80) was 93 % of control; the T/C (dose: 25.0 mg/kg/injection, schedule: Q04DX002 (ip), vehicle: saline with Tween-80) was 112 % of control.

With `O=C1NC(C2CCC3CN32)C(=O)NC1C1CCC2CN21` (configuration not stated), the T/C by setting is: (dose: 0.2 mg/kg/injection, schedule: Q01DX009 (ip), vehicle: saline) 102 % of control and 105 % of control; (dose: 0.4 mg/kg/injection, schedule: Q01DX009 (ip), vehicle: saline) 110 % of control and 113 % of control; (dose: 0.5 mg/kg/injection, schedule: Q01DX001 (ip), vehicle: Klucel (hydroxypropylcellulose) (HPC)) 101 % of control; (dose: 0.8 mg/kg/injection, schedule: Q01DX009 (ip), vehicle: saline) 110 % of control; (dose: 1.0 mg/kg/injection, schedule: Q01DX001 (ip), vehicle: Klucel (hydroxypropylcellulose) (HPC)) 101 % of control; (dose: 1.1 mg/kg/injection, schedule: Q01DX009 (ip), vehicle: saline) 112 % of control. The T/C was 151 % of control (dose: 2.0 mg/kg/injection, schedule: Q01DX001 (ip), vehicle: Klucel (hydroxypropylcellulose) (HPC)); 163 % of control (dose: 2.7 mg/kg/injection, schedule: Q01DX009 (ip), vehicle: saline); 182 % of control (dose: 5.0 mg/kg/injection, schedule: Q01DX009 (ip), vehicle: saline); 103 % of control (dose: 10.0 mg/kg/injection, schedule: Q01DX009 (ip), vehicle: saline); 164 % of control and 271 % of control (dose: 16.0 mg/kg/injection, schedule: Q01DX001 (ip), vehicle: Klucel (hydroxypropylcellulose) (HPC)); 169 % of control (dose: 24.0 mg/kg/injection, schedule: Q01DX001 (ip), vehicle: Klucel (hydroxypropylcellulose) (HPC)). Besides, the T/C (dose: 36.0 mg/kg/injection, schedule: Q01DX001 (ip), vehicle: Klucel (hydroxypropylcellulose) (HPC)) is 101 % of control.

Take `CN(C)/N=C/c1ccccn1`: the T/C is, setting by setting: (dose: 100.0 mg/kg/injection, schedule: Q04DX003 (ip), vehicle: saline) 106 % of control; (dose: 200.0 mg/kg/injection, schedule: Q04DX003 (ip), vehicle: saline) 109 % of control.

Take `O=S(O)O`: the T/C reads like this: under setting [6], 95 % of control; under setting [13], 103 % of control; under setting [8], 97 % of control; under setting [14], 97 % of control; under setting [10], 103 % of control; under setting [15], 100 % of control.

Take `NS(=O)(=O)c1ccc(NC(=O)Nc2cccc(C(F)(F)F)c2)cc1`: the T/C by setting is: under setting [1], 97 % of control; under setting [2], 94 % of control; under setting [3], 91 % of control; under setting [4], 91 % of control; under setting [11], 94 % of control; under setting [5], 97 % of control.

`CCCCCCCCCCCCCOc1ccc(S(=O)(=O)/N=C(\N)NC(N)=NCCCCCCCCCCCC)cc1`: the T/C by setting is: under setting [2], 93 % of control; under setting [4], 93 % of control; under setting [5], 86 % of control.

Regarding `Nc1ccc(CCc2ccc(S(=O)(=O)F)cc2)cc1`, the T/C is 108 % of control under setting [6], 103 % of control under setting [8] and 102 % of control under setting [10].

For the compound `CC(=O)C(=Cc1ccc(Cl)c(Cl)c1)C(C)=O`, the T/C under setting [1] was 100 % of control, the T/C under setting [7] is 96 % of control, the T/C under setting [9] was 96 % of control and the T/C under setting [12] was 86 % of control.

With `CC(C)(Br)C(=O)c1ccco1`, the T/C (dose: 100.0 mg/kg/injection, schedule: Q01DX009 (ip), vehicle: saline with Tween-80) is 95 % of control.
